Series [1] relates to Vero E6, Vero ACE2-TMPRSS2 and A549 ACE2 cells. Conditions: t = 22 hr.
Series [2] concerns the target T1, SARS-CoV-2 Nsp13 (Severe acute respiratory syndrome coronavirus 2, UniProt P0DTD1).
T1 construct: its nonstructural protein 13 (Nsp13) remains a clinically untapped target; His6-Zb-TEV (N, cleaved yes); host or cells: E. coli BL21 (DE3)
The series is classed as binding. Conditions: duplex-FL 100 nM, Nsp13 1 μM.

Series [3] has as its target T1, SARS-CoV-2 Nsp13. The series can be described thus: biochemical. Conditions: for inhibition at 50 µM: read-out: inhibition of helicase activity.
The next series deals with Nsp13. Conditions: cited from earlier work.
The test system of series [4] is Chinese hamster ovary (CHO) cells expressing CFTR or colon carcinoma cells. As to conditions: cited from earlier work.
Series [5] deals with T1, SARS-CoV-2 Nsp13. The series is classed as biochemical.
Series [6] has as its target T2, Hepatitis C Virus (HCV) RNA helicase NS3 (Hepatitis C virus genotype 1b, UniProt Q9WMX2).
T2 construct: A truncated form of the Hepatitis C NS3 helicase protein; His-SUMO (N, cleaved yes); made in house; host or cells: E. coli BL21 (DE3) per the methods text
Type of series: biochemical.

Series [7] addresses T1, SARS-CoV-2 Nsp13. The series is classed as biochemical. This is another data set of the same source.
The subject of the next series is SARS-CoV-2. Also noted: method as in PMID 35456026. As to conditions: micromolar concentrations, CFTR-expressing cells; cited from earlier work.
The next series relates to Tte UvrD helicase. The series is classed as biochemical. As to conditions: 3.02 nM UvrD, 1 mM ATP, 65 °C, increasing concentrations.
Series [8] has as its system duplex-FL (labeled duplex DNA). Type of series: binding. Conditions: duplex-FL 100 nM, 10% DMSO, no protein.
Series [9] addresses T1, SARS-CoV-2 Nsp13. The series can be described thus: biochemical. As to conditions: for first-round screen, inhibition of Nsp13 ATPase activity (considered active): no detergent, t = 5 min, compound equimolar to ATP.

Results on 9 compounds are retold here after publication PMC11267572, “A Repurposed Drug Interferes with Nucleic Acid to Inhibit the Dual Activities of Coronavirus Nsp13” (ACS Chemical Biology, 2024).

“Also recorded” adds a separate entry of the source. Like-named read-outs stand apart in the source and are kept apart here. Bounds are passed on as bounds.

Usually Kd stands for the free concentration of one partner at which half of the binding sites on the other are occupied at equilibrium, for simple one-to-one binding. Usually inhibition stands for the change of the read-out against control, counted positive when it falls. Broadly, the IC50 is the midpoint of a concentration-inhibition curve.

T2 sequence (Q9WMX2 1193-1657): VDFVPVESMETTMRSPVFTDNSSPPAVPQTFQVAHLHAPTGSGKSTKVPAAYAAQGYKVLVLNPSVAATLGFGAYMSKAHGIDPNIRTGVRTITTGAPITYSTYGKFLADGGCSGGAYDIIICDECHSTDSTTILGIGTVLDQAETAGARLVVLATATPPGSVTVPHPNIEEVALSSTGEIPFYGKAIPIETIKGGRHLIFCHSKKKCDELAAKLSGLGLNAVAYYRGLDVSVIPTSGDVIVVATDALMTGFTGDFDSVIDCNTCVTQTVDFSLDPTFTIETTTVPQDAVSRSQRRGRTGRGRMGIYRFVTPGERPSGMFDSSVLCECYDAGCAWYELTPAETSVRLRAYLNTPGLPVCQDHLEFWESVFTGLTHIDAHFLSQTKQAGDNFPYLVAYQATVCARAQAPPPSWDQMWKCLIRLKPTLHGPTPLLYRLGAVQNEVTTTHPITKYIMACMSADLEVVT

`Cc1ccc(-c2cc(C(=O)NCc3ccc(Oc4ccccc4)cc3)no2)cc1C` [Analog 2]: the “toxicity against infection cell lines” value in series [1] (up to 20 µM) is recorded as “did not show toxicity”. The “displacement of duplex-FL probe” value on SARS-CoV-2 Nsp13 [2] is reported as “no displacement of probe”. Further, the “inhibition of helicase activity” value against SARS-CoV-2 Nsp13 [3] (50 μM analog, 3.12 nM Nsp13, 0.01% Tween-20) is “no inhibition”.

For the compound `O=C1O[C@H]2[C@@H]3OC(=O)c4cc(O)c(O)c(O)c4-c4c(O)c(O)c5oc(=O)c6c(c(O)c(O)c7oc(=O)c4c5c76)-c4c(cc(O)c(O)c4O)C(=O)OC[C@H]3OC(O)[C@@H]2OC(=O)c2cc(O)c(O)c(O)c2-c2c1cc(O)c(O)c2O` (mixture of isomers) [punicalagin], the Kd at Nsp13 is about 0.02 µM.

For `Cc1ccc(COc2c(Br)cc(CNc3ccc(Oc4ccccc4)cc3)cc2Br)cc1` [Analog 5], the inhibition at 50 µM on SARS-CoV-2 Nsp13 [3] was under 25%.

Turning to `O=C(Cn1cccc1-c1nc(-c2ccc(F)c(Br)c2)no1)NCc1ccc(F)cc1` [Analog 6], the inhibition at 50 µM at SARS-CoV-2 Nsp13 [3] is under 25%.

Turning to `O=C(NCc1ccc(Oc2ccccc2)cc1)c1nc(-c2cc(Br)c(O)c(Br)c2)no1` [IOWH-032], the toxicity result in series [4] is listed as “not toxic”. Besides, the “reduction in cell viability” value in series [1] (4 μM, across all mammalian cell lines tested) is listed as about 50%. Besides, the “mode of ATPase inhibition with respect to ATP” value at SARS-CoV-2 Nsp13 [5] was “uncompetitive”. In addition, the “concentration above which NS3 ATPase activity decreases” value in series [6] (250 nM NS3, 250 μM ATP) is “exceed 100 µM”. In addition, the “sensitivity of NS3 ATPase activity” value in series [6] (mid-micromolar concentrations of compound) is recorded as “nearly insensitive”. For the same compound, the “mode of helicase inhibition with respect to nucleic acid substrate” value at SARS-CoV-2 Nsp13 [7] is given as “mixed inhibition”. Also, in the series with SARS-CoV-2, the “reduction of SARS-CoV-2 viral loads compared to untreated cells” value is over 2 log10. Moreover, the “effect on UvrD ATPase activity (ATP consumption)” value in the series on Tte UvrD helicase was “is not affected; also recorded: still demonstrated ATPase activity”. In series [8], the “interaction with duplex-FL probe alone” value was “does not interact with probe alone; also recorded: no direct interaction”.

Regarding `C[C@H](NC(=O)Cc1cc(F)cc(F)c1)C(=O)N[C@@H]1C(=O)N(C)c2ccccc2-c2ccccc21` [dibenzazepine], the “ATPase inhibition on titration in the presence of detergent” value on SARS-CoV-2 Nsp13 [9] (Tween-20, up to high micromolar concentrations) is given as “no inhibition”. On SARS-CoV-2 Nsp13 [9], the “first-round screen, inhibition of Nsp13 ATPase activity (considered active)” value was “active”.

Take `CNC(=O)c1cc(COc2nnc(Nc3ccc(Cl)cc3)c3ccoc23)ccn1` [telatinib]: the IC50 on SARS-CoV-2 Nsp13 [9] (25 nM Nsp13, 0.01% Tween-20, read-out: ATPase inhibition IC50) was about 114 µM; against SARS-CoV-2 Nsp13 [3] it was 20.4 ± 1.5 µM. Moreover, the “first-round screen, inhibition of Nsp13 ATPase activity (considered active)” value at SARS-CoV-2 Nsp13 [9] is reported as “active”.

Take `O=C(NCc1ccc(Cn2cc(Cl)cn2)cc1)c1nc(-c2ccc(C(F)(F)F)cc2)no1` [Analog 1]: at SARS-CoV-2 Nsp13 [3], the half-maximal inhibitory concentration (IC50) was 131 ± 53 µM and the inhibition at 50 µM was over 25%. For the same compound, on SARS-CoV-2 Nsp13 [3] (3.12 nM Nsp13, 0.01% Tween-20), the “fold higher helicase IC50 than IOWH-032” value is over 10 fold.

For the compound `C=CCn1c(CSc2ccccc2[N+](=O)[O-])n[nH]c1=S` [SSYA10-001], the “inhibition of helicase activity” value at SARS-CoV-2 Nsp13 [3] is reported as “inhibited”.
